Experimental data taken from PubChem BioAssay (NCI).
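48-hour exposure; five concentrations; linearly interpolated endpoints. Abbreviation: GI50, concentration required for 50% inhibition of growth. TGI: concentration producing complete growth inhibition.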

Assays:
Assay in all cases: growth of human tumour cells (NCI), 48 h
BT-549 breast = system: BT-549 breast
MCF7 breast = system: MCF7 breast
SK-OV-3 ovarian = system: SK-OV-3 ovarian
T-47D breast = system: T-47D breast
MALME-3M melanoma = system: MALME-3M melanoma
HCT-15 colon = system: HCT-15 colon
HOP-92 NSCLC = system: HOP-92 NSCLC
TK-10 renal = system: TK-10 renal
M14 melanoma = system: M14 melanoma
MOLT-4 leukemia = system: MOLT-4 leukemia

Row | SMILES | TGI (BT-549 breast) [µM] | TGI (MCF7 breast) [µM] | TGI (SK-OV-3 ovarian) [µM] | TGI (T-47D breast) [µM] | TGI (MALME-3M melanoma) [µM] | TGI (HCT-15 colon) [µM] | TGI (HOP-92 NSCLC) [µM] | TGI (TK-10 renal) [µM] | TGI (M14 melanoma) [µM] | TGI (MOLT-4 leukemia) [µM] | GI50 (BT-549 breast) [µM] | GI50 (MCF7 breast) [µM] | GI50 (SK-OV-3 ovarian) [µM] | GI50 (T-47D breast) [µM] | GI50 (MALME-3M melanoma) [µM] | GI50 (HCT-15 colon) [µM] | GI50 (HOP-92 NSCLC) [µM] | GI50 (TK-10 renal) [µM] | GI50 (M14 melanoma) [µM] | GI50 (MOLT-4 leukemia) [µM]
1 | COc1cc(/C=C/C(=O)Oc2ccccc2)ccc1C(=O)O/C=C/c1ccccc1 | > 100 | > 100 | > 100 | > 100 | > 100 | > 100 | > 100 | > 100 | > 100 | > 100 | – | – | – | – | – | – | – | – | – | –
2 | CCOC(=O)C1=C(N)Oc2c(sc3c(C)cccc23)C1c1ccc(F)cc1 (configuration not stated) | 12.6 | 11.4 | 32.3 | 26.4 | 20.8 | 10.9 | 13.4 | 29.5 | 14.5 | 17.5 | 2.07 | 0.47 | 11.5 | 2.61 | 0.588 | 0.415 | 2.13 | 13.2 | 0.486 | 1.88
3 | CNC(C)[C@H]1CCC2C3CC=C4C(=O)[C@@H](NC(=O)C=C(C)C)CC[C@]4(C)C3CC[C@@]21C (some centres not stated) | 8.42 | 5.98 | 9.5 | 5.05 | 3.47 | 2.89 | 10.3 | 10.4 | 3.45 | 3.89 | 2.34 | 1.7 | 2.75 | 0.925 | 1.64 | 1.14 | 0.977 | 2.89 | 1.72 | 1.27
4 | COc1ccc2c(c1)C(C)Cc1c(ncnc1-n1cnc3ccccc31)N2C (configuration not stated) | 10.3 | 14 | 16 | 64.6 | – | 10.9 | 8.23 | 37.1 | 12.7 | 21.2 | 0.47 | 0.313 | 0.429 | 0.432 | – | 0.367 | 0.441 | 0.793 | 0.313 | 0.479
5 | COC(=O)[C@]12CC[C@@H](C)[C@H](C)[C@@H]1C1=CC[C@@H]3[C@@]4(C)C(C=O)=C[C@@](C)(COC(=O)c5ccco5)[C@@H]4[C@H](O)C[C@@]3(C)[C@]1(C)CC2 | 6.65 | 9.86 | 18.3 | 39.5 | 1.17 | 3.09 | 4.27 | 9.32 | 2.6 | 7.5 | 2.07 | 2.31 | 3.64 | 2.37 | 0.224 | 1.51 | 1.56 | 2.04 | 0.305 | 2.29
6 | c1ccc(NCCSc2nc3ccccc3s2)cc1 | > 100 | > 100 | > 100 | > 100 | > 100 | 43 | > 100 | 77.4 | > 100 | 82.4 | – | – | – | – | – | – | – | – | – | –
7 | O=C(NC1CCCCC1)c1ccc(Nc2ncnc3c2cnn3-c2ccccc2)cc1 | 26.4 | > 100 | 8.7 | > 100 | 4.94 | > 100 | 8.29 | 49.5 | > 100 | > 100 | 5.69 | 74.1 | 2.95 | 20.2 | 1.97 | 99.3 | 2.53 | 16.5 | 18.3 | 75.6
8 | Cn1c(=S)c2[nH]c(SCCCc3ccccc3)nc2n(C)c1=O | > 100 | > 100 | > 100 | > 100 | > 100 | > 100 | > 100 | 78.9 | > 100 | > 100 | – | – | – | – | – | – | – | – | – | –
9 | COc1cc2c3c(n(CCCN(CCO)CCO)c(=O)c2cc1OC)-c1cc2c(cc1C3=O)OCO2 | 13.6 | > 24.7 | 34.9 | > 22.7 | 23.4 | 20.7 | 4.18 | 6.02 | 0.17 | < 0.01 | 0.586 | < 0.01 | 2.22 | 0.144 | 0.67 | 0.838 | – | 1.23 | < 0.01 | < 0.01
10 | COc1cc(/C=C2\CCC/C(=C\c3ccc(OCC4CO4)c(OC)c3)C2=O)ccc1OCC1CO1 (configuration not stated) | 5.3 | 7.32 | 10.7 | 12.2 | 4.56 | 4.59 | > 100 | 17.6 | 3.99 | 34.1 | 2.28 | 2.02 | 3.54 | 2.98 | 1.95 | 2.04 | 3.3 | 4.04 | 1.94 | 2.91
